Data: patent EP4785945A1, “THERAPEUTIC AGENT FOR RHEUMATOID ARTHRITIS” (Teijin Pharma Limited, priority 2023, dated 2025)

Columns and labels:
[1] = system: rheumatoid arthritis patients; assay: Clinical trial on rheumatoid arthritis patients: efficacy (ACR20, DAS28-CRP, VAS scale pain score, TJC); type: in vivo, humans
Description: (§1) Compound 1 was orally administered at dosages of 10, 25, 75, or 175 mg once daily for seven days (double-blind study) to 32 rheumatoid arthritis patients (six patients for each dosage of Compound 1 administration, and two patients for each dosage of placebo administration).
(§2) Endpoints included: items related to disease activity and pain (DAS28-CRP, ACR20, VAS scale pain score, and TJC) to represent efficacy; vital signs (blood pressure, pulse, body temperature, and respiratory rate), physical findings, electrocardiograms, hematological tests, blood biochemistry tests, and the severity and frequency of adverse events to represent safety; and changes in the plasma concentration of Compound 1 to represent pharmacokinetics (PK).
DAS28-CRP was used to determine whether there was improvement or no improvement based on the differences between the values on Day 1 and Day 7 of administration, in accordance with the criteria shown in Table 1 (EULAR criteria).
ACR20 was used to determine whether there was an improvement based on the ACR20 on Day 1 and Day 7 of administration.
The percentage change in the VAS scale pain score is the percentage change in the score on Day 7 compared to the score on Day 1.
The percentage change in the TJC score is the percentage change in the value on Day 7 compared to the value on Day 1.

[2] = system: rheumatoid arthritis patients; assay: Clinical trial on rheumatoid arthritis patients: safety; type: in vivo, humans
Description: as §1, §2

[3] = Clinical trial on rheumatoid arthritis patients: pharmacokinetics (plasma concentration); type: in vivo, humans; conditions: human, Day 7 after administration
Description: as §1, §2

synovial cells = assay: Proliferation of synovial cells stimulated with TNF-α and IL-1β; type: cell-based; conditions: Synovial cell, relative to baseline after TNF-α and IL-1β stimulation without Compound 1, read-out: suppression of proliferation of synovial cells
Description: (§3) The synovial cells used in the test were derived from rheumatoid arthritis patients. The synovial cells were stimulated with tumor necrosis factor-α (TNF-α) and interleukin-1β (IL-1β) at the time of the test, and the effect of Compound 1 was measured. […] Furthermore, with regard to matrix metalloproteinase-3 (MMP-3), which is a mediator involved in tissue destruction, relative to a baseline after TNF-α and IL-1β stimulation without any added Compound 1, Compound 1 suppressed secretion in a dosage-dependent manner, by 14% when 10 nM was added, 21% when 30 nM was added, 37% when 100 nM was added, 60% when 300 nM was added, and 63% when 1000 nM was added.

[4] = system: granulocyte macrophage colony-stimulating factor (GM-CSF); assay: GM-CSF secretion by synovial cells stimulated with TNF-α and IL-1β; type: cell-based; conditions: relative to baseline after TNF-α and IL-1β stimulation without Compound 1, read-out: suppression of GM-CSF secretion
Description: as §3

[5] = system: matrix metalloproteinase-3 (MMP-3); assay: MMP-3 secretion by synovial cells stimulated with TNF-α and IL-1β; type: cell-based; conditions: Synovial cell, relative to baseline after TNF-α and IL-1β stimulation without Compound 1, read-out: suppression of MMP-3 secretion
Description: as §3

[6] = system: synovial cells and bone marrow cells; type: in vitro ADME
Description: Cultured synovial cells and bone marrow cells were used. Compound 1 was added, and the intracellular concentration in the synovial cells and bone marrow cells and the concentration in the culture medium were measured.

[7] = system: rat adjuvant-induced arthritis (AIA) model; assay: Combination study with methotrexate, Arthritis Score; type: in vivo
Description: The effect of combining Compound 1 with methotrexate was measured using a rat adjuvant-induced arthritis (AIA) model. The effect was evaluated using the Arthritis Score. […] Compared to the control, the scores decreased by 33% when only Compound 1 was used, by 59% when only methotrexate was used, and by 86% when Compound 1 and methotrexate were used in combination. On the other hand, in this study, there was no decrease in the number of bone marrow cells even when Compound 1 and methotrexate were used in combination.

[8] = system: mouse anti-collagen antibody-induced arthritis (CAIA) model; assay: Combination study with etanercept, Arthritis Score; type: in vivo; conditions: Compound 1 alone, 50 mg/kg/day
Description: The effect of combining Compound 1 with etanercept was measured using a mouse anti-collagen antibody-induced arthritis (CAIA) model. The effect was evaluated using the Arthritis Score. […] Compared to the control, the scores decreased by 64% when only Compound 1 was used, by 62% when only etanercept was used, and by 97% when Compound 1 and etanercept were used in combination.

rat AIA model = assay: Combination study with tofacitinib, Arthritis Score; type: in vivo; conditions: 30 mg/kg/day
Description: The effect of combining compound 1 with tofacitinib was measured using a rat AIA model. The effect was evaluated using the Arthritis Score.

[9] = package insert; cited from earlier work
[10] = 25 mg, 75 mg, and 175 mg administration groups, Day 7 compared to Day 1
[11] = 75 mg administration group, Day 7 compared to Day 1
[12] = Day 1 to Day 7 of administration and three-day follow-up (up to Day 10)
[13] = all administration groups (10 to 175 mg)

CC(C)Nc1nc([C@@H](C)O)cc2cnc(Nc3ccc(N4CCNCC4=O)cn3)nc12 [Compound 1, (R)-1-(6-((6-(1-hydroxyethyl)-8-(isopropylamino)pyrido[3,4-d]pyrimidin-2-yl)amino)pyridin-3-yl)piperazin-2-one]
percentages of subjects who showed improvement in ACR20, compared with placebo group ([1]; 25 mg, 75 mg, and 175 mg administration groups, once daily oral, seven days): higher than in the placebo group
percentages of subjects who showed improvement in DAS28-CRP, compared with placebo group ([1]; 25 mg, 75 mg, and 175 mg administration groups, once daily oral, seven days, EULAR criteria): higher than in the placebo group
decreases in the TJC scores, compared with placebo group [1, 10]: higher than in the placebo group
decreases in the VAS scale pain scores, compared with placebo group [1, 10]: higher than in the placebo group
percentage of subjects who showed improvement in ACR20 ([1]; 75 mg administration group, once daily oral, seven days): 60%
percentage of subjects who showed improvement in DAS28-CRP ([1]; 75 mg administration group, once daily oral, seven days, EULAR criteria): 80%
percentage change in the TJC score [1, 11]: -40%
percentage change in the VAS scale pain score [1, 11]: -40%
adverse events, cases (events) ([2]; 10 mg administration group): two cases (five events)
adverse events, cases (events) ([2]; 25 mg administration group): two cases (three events)
adverse events, cases (events) ([2]; 75 mg administration group): two cases (three events)
adverse events, cases (events) ([2]; 175 mg administration group): one case (one event)
neutropenia or decrease in neutrophil count [2, 12]: no neutropenia or decrease in neutrophil count
neutrophil count [2, 12]: maintained a constant neutrophil count
severe adverse events [2, 13]: no severe adverse events
severity of adverse events [2, 13]: mild to moderate
changes in vital signs, electrocardiograms, physical findings, hematological tests, or blood biochemistry tests ([2]; any dosage (10, 25, 75, 175 mg once daily, seven days)): No significant changes
half-life at 168 h ([3]; 10 mg once daily oral): 12.9 h
half-life at 168 h ([3]; 25 mg once daily oral): 11.9 h
half-life at 168 h ([3]; 75 mg once daily oral): 14.6 h
half-life at 168 h ([3]; 175 mg once daily oral): 10.4 h
inhibition at 0.01 µM (synovial cells; 10 nM): 5%
inhibition at 0.03 µM (synovial cells; 30 nM): 14%
inhibition at 0.1 µM (synovial cells; 100 nM): 19%
inhibition at 0.3 µM (synovial cells; 300 nM): 27%
inhibition at 1 µM (synovial cells; 1000 nM): 35%
inhibition at 0.008 µM ([4]; 8 nM): 17%
inhibition at 0.04 µM ([4]; 40 nM): 25%
inhibition at 0.2 µM ([4]; 200 nM): 48%
inhibition at 1 µM ([4]; 1000 nM): 65%
inhibition at 0.01 µM ([5]; 10 nM): 14%
inhibition at 0.03 µM ([5]; 30 nM): 21%
inhibition at 0.1 µM ([5]; 100 nM): 37%
inhibition at 0.3 µM ([5]; 300 nM): 60%
inhibition at 1 µM ([5]; 1000 nM): 63%
distribution ratio between synovial cells and bone marrow cells [6]: 84:16
decrease of Arthritis Score compared to the control ([7]; Compound 1 alone, 30 mg/kg/day): 33%
decrease of Arthritis Score compared to the control [8]: 64%
decrease of Arthritis Score compared to the control (rat AIA model; Compound 1 alone): 40%

CCN1CCN(Cc2ccc(Nc3ncc(F)c(-c4cc(F)c5nc(C)n(C(C)C)c5c4)n3)nc2)CC1 [abemaciclib]
incidence of the side effect of neutropenia [9]: 42.2%

CN(Cc1cnc2nc(N)nc(N)c2n1)c1ccc(C(=O)N[C@@H](CCC(=O)O)C(=O)O)cc1 [methotrexate, reference compound]
decrease of Arthritis Score compared to the control ([7]; methotrexate alone, 0.075 mg/kg/day): 59%

C[C@@H]1CCN(C(=O)CC#N)C[C@@H]1N(C)c1ncnc2[nH]ccc12 [tofacitinib, reference compound]
decrease of Arthritis Score compared to the control (rat AIA model; tofacitinib alone): 67%
